Test results published in patent US20240304840A1 (priority 2023, published 2024).

Details: 1 mAh H-cell, 1 M sodium chloride, Selemion AMVN, about 20 days
Text: An H-cell can be used for the coulombic efficiency tests. […] The electrolyte can be dissolved in about 1 M sodium chloride for electrochemical stability testing. The moles of anolyte and catholyte molecules present can be controlled to achieve the desired capacity of 1 mAh. […] Selemion™ anion exchange membrane (AMVN) can be used for the H-cells.

## C[N+](C)(C)CCC[N+](C)(C)CCCN1C(=O)c2ccc3c4ccc5c6c(ccc(c7ccc(c2c37)C1=O)c64)C(=O)N(CCC[N+](C)(C)CCC[N+](C)(C)C)C5=O [PDI-tetraammonium-Cl4]
  crossover in H-cell: almost no crossover
